In patent US12509460B2 (Skyhawk Therapeutics, Inc., priority 2019, dated 2025):

What was measured:
[1] = Quantitative splicing assay (HTT), qPCR; type: cell-based, human; details: Homo sapiens, GM04724, 24 h, GM04724 lymphoblasts, qPCR, read-out: HTT Splicing: E49-50 EC50
Method: Example A9: Quantitative Splicing Assay (HTT)
GM04724 (CAG 70/20) Huntington's disease patient lymphoblasts (Coriell) are plated in 96-well v-bottom plates at 50,000 cells/well. Immediately after plating, cells are dosed with compound for 24 h at concentrations ranging from 2.5 uM to 0.15 nM (0.1% DMSO). Treated cells are lysed and cDNA synthesized using the Fast Advanced Cells-to-Ct kit (Thermofisher A35378) according to the manufacturer's instructions. 2 uL of each cDNA are used in qPCR reactions to confirm the compound-induced inclusion of a cryptic exon within intron 49 of the Huntingtin (HTT) transcripts. The qPCR reactions are prepared in 384-well plates in 10 uL volume, using TagMan™ Fast Advanced Master Mix [ThermoFisher, 4444965] with primers and probes shown in the table below. Reactions are run in a Quant studio 6 qPCR instrument with default settings.

[2] = test system: mHTT protein in GM04724 (CAG 70/20) Huntington's disease patient lymphoblast cells; assay: mHTT protein assay, 2B7-MW1 assay via Mesoscale Discovery (MSD); type: cell-based, human; details: GM04724 Huntington's disease patient lymphoblasts
Summary of the method: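 Signal from the 2B7-MW1 antibody pair on MSD, rising with polyQ length and smaller HTT fragments, measured mHTT after 48 h compound exposure (0.6 nM–10 μM) in GM04724 cells. A parallel replicate plate gave CellTiter Glo viability.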

MDR1 = assay: Blood-brain-barrier (BBB) penetration potential via MDCK-MDR1 permeability assay; details: dog, MDCK-MDR1, pH 7.4, MDCK-MDR1: Efflux, efflux ratio
[3] = test system: MDR1-MDCK cell monolayers; assay: as above; details: for MDCK-MDR1: % Recov A-B: A-B direction; for MDCK-MDR1: % Recov B-A: B-A direction
MDR1 (P-gp) = assay: as above; details: dog; for Papp A→B at 120 min, 5 μM: MDCK-MDR1, pH 7.4, MDCK-MDR1: Papp A-B, A-B direction; for Papp B→A at 120 min, 5 μM: MDCK-MDR1, pH 7.4, MDCK-MDR1: Papp B-A, B-A direction
[4] = test system: SMN protein in spinal muscular atrophy (SMA) patient fibroblasts (GM03813, Coriell); assay: SMN protein assay, Mesoscale Discovery (MSD); type: cell-based, human; details: SMA patient fibroblasts GM03813, 48 hours, MSD; read-out: SMN2 protein EC50
Summary of the method: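 Absolute SMN levels were quantified by MSD against an SMN protein standard curve (1 μg/ml to 19.5 pg/ml) run on each plate. Samples were lysates of GM03813 patient fibroblasts (7000 cells/well) treated 48 hours with compound doses from 2.5 μM down to 0.6 nM.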

[5] = test system: SMN FL and SMN Δ7 in spinal muscular atrophy (SMA) patient fibroblasts (GM03813, Coriell); assay: Quantitative splicing assay (SMN), qPCR; type: cell-based, human; details: Homo sapiens, Fibroblast, 24 h, SMA patient fibroblasts GM03813, 24 h, qPCR; read-out: SMN2 Splicing FL EC50
Method: Spinal muscular atrophy (SMA) patient fibroblasts (GM03813, Coriell) are plated in 96-well plates at 50,000 cells/well. […] Treated cells are lysed and cDNA synthesized using the Fast Advanced Cells-to-Ct kit (Thermofisher A35378) according to the manufacturer's instructions. 2 μL of each cDNA are used in qPCR reactions. […] Reactions are run in a Quant Studio 6 qPCR instrument with default settings.

| Structure (SMILES) | EC50 [1] [nM] | EC50 [2] [nM] | efflux ratio at 120 min, 5 μM (MDR1) | MDCK-MDR1: % Recov A-B [3] [%] | MDCK-MDR1: % Recov B-A [3] [%] | Papp A→B at 120 min, 5 μM (MDR1 (P-gp)) [×10⁻⁶ cm/s] | Papp B→A at 120 min, 5 μM (MDR1 (P-gp)) [×10⁻⁶ cm/s] | EC50 [4] [nM] | EC50 [5] [nM] |
| --- | --- | --- | --- | --- | --- | --- | --- | --- | --- |
| CN(c1ccc(-c2ccc(-c3ccn(C)n3)cc2O)nn1)[C@H]1C[C@@H]2CC[C@@H](N2)[C@H]1F (single isomer, unassigned) [Compound 36B] | 0.01 to 15 | 0.01 to 15 | 7 | 72 | 79 | 5.87 | 41.8 | 0.01 to 15 | 0.01 to 15 |
| CN(c1ccc(-c2ccc(-n3cnc(Cl)c3)cc2O)nn1)C1CC2CC(F)(F)C(C1)N2 (single isomer, unassigned) [Compound 37A] | 0.01 to 15 | 16 to 50 | 2 | 52 | 69 | 17.3 | 34.4 | 16 to 50 | 16 to 50 |
| CN(c1ccc(-c2ccc(-c3cn[nH]c3)cc2O)nn1)[C@@H]1C[C@H]2CC[C@H](N2)[C@@H]1F (single isomer, unassigned) [Compound 42A] | 0.01 to 15 | 0.01 to 15 | 43 | 87 | 91 | 0.86 | 36.8 | 0.01 to 15 | 0.01 to 15 |
| CN(c1ccc(-c2ccc(-c3cn[nH]c3)cc2O)nn1)[C@H]1C[C@@H]2CC[C@@H](N2)[C@H]1F (single isomer, unassigned) [Compound 42B] | 0.01 to 15 | 0.01 to 15 | 39 | 78 | 73 | 0.71 | 27.7 | 0.01 to 15 | 0.01 to 15 |
| CN(c1ccc(-c2cc3c(=O)n(C)ccc3s2)nn1)[C@H]1C[C@@H]2CC[C@@H](N2)[C@H]1F (single isomer, unassigned) [Compound 68B] | 51 to 100 | 101 to 500 | 113 | 92 | 91 | 0.4 | 44.7 | 16 to 50 | 51 to 100 |
| CN(c1ccc(-c2cc3oc(=O)n(C)c3cc2O)nn1)[C@@H]1C[C@H]2CC[C@H](N2)[C@@H]1F (single isomer, unassigned) [Compound 79A] | 16 to 50 | 0.01 to 15 | 14 | 89 | 99 | 2.51 | 34.9 | 0.01 to 15 | 16 to 50 |
| CN(c1ccc(-c2cc3ccncc3cc2O)nn1)[C@@H]1C[C@H]2CC[C@H](N2)[C@@H]1F (single isomer, unassigned) [Compound 87A] | 51 to 100 | 51 to 100 | 8 | 59 | 79 | 5.33 | 43.1 | 0.01 to 15 | 101 to 500 |
| CN(c1ccc(-c2cc3ccncc3cc2O)nn1)[C@H]1C[C@@H]2CC[C@@H](N2)[C@H]1F (single isomer, unassigned) [Compound 87B] | 0.01 to 15 | 0.01 to 15 | 9 | 70 | 88 | 3.3 | 28.7 | 0.01 to 15 | 0.01 to 15 |
| CN(c1ccc(-c2cc(F)c(-c3ccn(C)c(=O)c3)cc2O)nn1)[C@@H]1C[C@H]2CC[C@H](N2)[C@@H]1F [Compound 1A, 4-(2-fluoro-4-(6-(((1S,2S,3R,5R)-2-fluoro-8-azabicyclo[3.2.1]octan-3-yl)(methyl)amino)pyridazin-3-yl)-5-hydroxyphenyl)-1-methylpyridin-2(1H)-one] | 0.01 to 15 | 0.01 to 15 | 81 | 83 | 88 | 0.61 | 49.3 | 0.01 to 15 | 0.01 to 15 |
| CN(c1ccc(-c2cc(F)c(-c3ccn(C)c(=O)c3)cc2O)nn1)[C@H]1C[C@@H]2CC[C@@H](N2)[C@H]1F [Compound 1B, 4-(2-fluoro-4-(6-(((1R,2R,3S,5S)-2-fluoro-8-azabicyclo[3.2.1]octan-3-yl)(methyl)amino)pyridazin-3-yl)-5-hydroxyphenyl)-1-methylpyridin-2(1H)-one] | 0.01 to 15 | 0.01 to 15 | 83 | 97 | 98 | 0.49 | 40.4 | 0.01 to 15 | 0.01 to 15 |
| CN(c1ccc(-c2ccc(-n3ccnc3)cc2O)nn1)[C@@H]1C[C@H]2CC[C@H](N2)[C@@H]1F [Compound 4A, 2-(6-(((1S,2S,3R,5R)-2-fluoro-8-azabicyclo[3.2.1]octan-3-yl)(methyl)amino)pyridazin-3-yl)-5-(1H-imidazol-1-yl)phenol] | 16 to 50 | 16 to 50 | 16 | 86 | 73 | 2.75 | 44.8 | 0.01 to 15 | 51 to 100 |
| CN(c1ccc(-c2ccc(-n3ccnc3)cc2O)nn1)[C@H]1C[C@@H]2CC[C@@H](N2)[C@H]1F [Compound 4B, 2-(6-(((1R,2R,3S,5S)-2-fluoro-8-azabicyclo[3.2.1]octan-3-yl)(methyl)amino)pyridazin-3-yl)-5-(1H-imidazol-1-yl)phenol] | 0.01 to 15 | 0.01 to 15 | 18 | 87 | 85 | 2.82 | 49.7 | 0.01 to 15 | 0.01 to 15 |
